Results reported in PubChem BioAssay (NCI).
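Following 48 hours of exposure in 96-well plates, responses at five concentrations were used to interpolate endpoints linearly. GI50 = concentration required for 50% inhibition of growth. TGI is the concentration that stops growth completely.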

How the values were obtained:
Experiment in all cases: growth of human tumour cells (NCI), 48 h; in the data active means GI50 below about 0.43 µM; inactive means the rest
786-0 renal = system: 786-0 renal
A498 renal = system: A498 renal
A549 NSCLC = system: A549 NSCLC
ACHN renal = system: ACHN renal
BT-549 breast = system: BT-549 breast
CAKI-1 renal = system: CAKI-1 renal
CCRF-CEM leukemia = system: CCRF-CEM leukemia
COLO 205 colon = system: COLO 205 colon
DU-145 prostate = system: DU-145 prostate
EKVX NSCLC = system: EKVX NSCLC
HCC-2998 colon = system: HCC-2998 colon
HCT-116 colon = system: HCT-116 colon
HCT-15 colon = system: HCT-15 colon
HL-60(TB) leukemia = system: HL-60(TB) leukemia
HOP-62 NSCLC = system: HOP-62 NSCLC
HOP-92 NSCLC = system: HOP-92 NSCLC
HS 578T breast = system: HS 578T breast
HT29 colon = system: HT29 colon
IGROV1 ovarian = system: IGROV1 ovarian
K-562 leukemia = system: K-562 leukemia
KM12 colon = system: KM12 colon
LOX IMVI melanoma = system: LOX IMVI melanoma
M14 melanoma = system: M14 melanoma
MALME-3M melanoma = system: MALME-3M melanoma
MCF7 breast = system: MCF7 breast
MDA-MB-231 breast = system: MDA-MB-231 breast
MDA-MB-435 = system: MDA-MB-435
MOLT-4 leukemia = system: MOLT-4 leukemia
NCI-H226 lung = system: NCI-H226 lung
NCI-H460 lung = system: NCI-H460 lung
NCI-H522 lung = system: NCI-H522 lung
NCI/ADR-RES ovarian = system: NCI/ADR-RES ovarian
OVCAR-3 ovarian = system: OVCAR-3 ovarian
OVCAR-4 ovarian = system: OVCAR-4 ovarian
OVCAR-5 ovarian = system: OVCAR-5 ovarian
OVCAR-8 ovarian = system: OVCAR-8 ovarian
PC-3 prostate = system: PC-3 prostate
RPMI-8226 leukemia = system: RPMI-8226 leukemia
RXF 393 renal = system: RXF 393 renal
SF-268 CNS = system: SF-268 CNS
SF-295 CNS = system: SF-295 CNS
SF-539 CNS = system: SF-539 CNS
SK-MEL-2 melanoma = system: SK-MEL-2 melanoma
SK-MEL-28 melanoma = system: SK-MEL-28 melanoma
SK-MEL-5 melanoma = system: SK-MEL-5 melanoma
SK-OV-3 ovarian = system: SK-OV-3 ovarian
SN12C renal = system: SN12C renal
SNB-19 CNS = system: SNB-19 CNS
SNB-75 CNS = system: SNB-75 CNS
SR leukemia = system: SR leukemia
SW-620 colon = system: SW-620 colon
T-47D breast = system: T-47D breast
TK-10 renal = system: TK-10 renal
U251 CNS = system: U251 CNS
UACC-257 melanoma = system: UACC-257 melanoma
UACC-62 melanoma = system: UACC-62 melanoma
UO-31 renal = system: UO-31 renal

CCNC(=O)N1CCc2cc(OC)c(OCCc3ccc(OC)cc3)cc2C1c1ccc(OC)cc1C (stereo unspecified)
> 53.8 µM: TGI (NCI-H226 lung)
> 30 µM: TGI (NCI/ADR-RES ovarian)
4.89 µM: TGI (RPMI-8226 leukemia)
3.16 µM: TGI (SK-MEL-5 melanoma)
> 29.7 µM: TGI (SK-MEL-2 melanoma)
7.23 µM: TGI (MDA-MB-435)
9.66 µM: TGI (HT29 colon)
3.34 µM: TGI (NCI-H522 lung)
5.72 µM: TGI (SF-539 CNS)
inactive: GI50 (786-0 renal) 715 nM | GI50 (A549 NSCLC) 1390 nM | GI50 (ACHN renal) 755 nM | GI50 (BT-549 breast) 1360 nM | GI50 (CAKI-1 renal) 1150 nM | GI50 (CCRF-CEM leukemia) 432 nM | GI50 (COLO 205 colon) 1070 nM | GI50 (DU-145 prostate) 1330 nM | GI50 (EKVX NSCLC) 5.64 µM | GI50 (HCC-2998 colon) 1950 nM | GI50 (HL-60(TB) leukemia) 583 nM | GI50 (HOP-62 NSCLC) 1590 nM | GI50 (HOP-92 NSCLC) 3.91 µM | GI50 (HS 578T breast) 1660 nM | GI50 (HT29 colon) 694 nM | GI50 (IGROV1 ovarian) 755 nM | GI50 (KM12 colon) 1120 nM | GI50 (M14 melanoma) 1240 nM | GI50 (MALME-3M melanoma) 12.2 µM | GI50 (MCF7 breast) 528 nM | GI50 (MDA-MB-231 breast) 1040 nM | GI50 (MDA-MB-435) 770 nM | GI50 (NCI-H226 lung) 2720 nM | GI50 (NCI-H522 lung) 698 nM | GI50 (NCI/ADR-RES ovarian) 871 nM | GI50 (OVCAR-3 ovarian) 1960 nM | GI50 (OVCAR-4 ovarian) 3.73 µM | GI50 (OVCAR-5 ovarian) 2350 nM | GI50 (OVCAR-8 ovarian) 821 nM | GI50 (PC-3 prostate) 489 nM | GI50 (RPMI-8226 leukemia) 486 nM | GI50 (RXF 393 renal) 1510 nM | GI50 (SF-268 CNS) 1320 nM | GI50 (SF-295 CNS) 875 nM | GI50 (SF-539 CNS) 572 nM | GI50 (SK-MEL-2 melanoma) 3.8 µM | GI50 (SK-MEL-28 melanoma) 1410 nM | GI50 (SK-MEL-5 melanoma) 741 nM | GI50 (SK-OV-3 ovarian) 5.44 µM | GI50 (SN12C renal) 1530 nM | GI50 (SNB-19 CNS) 1160 nM | GI50 (SNB-75 CNS) 893 nM | GI50 (SW-620 colon) 741 nM | GI50 (T-47D breast) 2960 nM | GI50 (TK-10 renal) 5.95 µM | GI50 (U251 CNS) 557 nM | GI50 (UACC-257 melanoma) 6.66 µM | GI50 (UACC-62 melanoma) 644 nM | GI50 (UO-31 renal) 1450 nM
> 27.2 µM: TGI (SNB-75 CNS)
> 32.9 µM: TGI (NCI-H460 lung)
5.23 µM: TGI (HL-60(TB) leukemia)
> 22.2 µM: TGI (A498 renal)
> 37.5 µM: TGI (SF-295 CNS)
> 31.1 µM: TGI (HS 578T breast)
active: GI50 (HCT-116 colon) 232 nM | GI50 (HCT-15 colon) 168 nM | GI50 (K-562 leukemia) 242 nM | GI50 (LOX IMVI melanoma) 300 nM | GI50 (MOLT-4 leukemia) 314 nM | GI50 (NCI-H460 lung) 288 nM | GI50 (SR leukemia) 151 nM
2690 nM: TGI (SR leukemia)
> 100 µM: TGI (786-0 renal) | TGI (A549 NSCLC) | TGI (ACHN renal) | TGI (CAKI-1 renal) | TGI (CCRF-CEM leukemia) | TGI (COLO 205 colon) | TGI (DU-145 prostate) | TGI (EKVX NSCLC) | TGI (HCC-2998 colon) | TGI (HCT-116 colon) | TGI (HCT-15 colon) | TGI (HOP-62 NSCLC) | TGI (HOP-92 NSCLC) | TGI (IGROV1 ovarian) | TGI (K-562 leukemia) | TGI (KM12 colon) | TGI (M14 melanoma) | TGI (MALME-3M melanoma) | TGI (MCF7 breast) | TGI (MDA-MB-231 breast) | TGI (MOLT-4 leukemia) | TGI (OVCAR-3 ovarian) | TGI (OVCAR-4 ovarian) | TGI (OVCAR-5 ovarian) | TGI (OVCAR-8 ovarian) | TGI (PC-3 prostate) | TGI (SF-268 CNS) | TGI (SK-MEL-28 melanoma) | TGI (SK-OV-3 ovarian) | TGI (SN12C renal) | TGI (SNB-19 CNS) | TGI (SW-620 colon) | TGI (T-47D breast) | TGI (TK-10 renal) | TGI (U251 CNS) | TGI (UACC-257 melanoma) | TGI (UACC-62 melanoma) | TGI (UO-31 renal)
4.19 µM: TGI (RXF 393 renal)
